# Results published in patent US20050043378A1, “LTA4H modulators” (priority 2003, published 2005).
# Structures can show the parent of a compound that is named as a salt. Where two headings read alike, the source gives them in different places.
# Legend:
# [1] = test system: ex vivo stimulated LTB4 production in blood; test: Murine arachidonic acid-induced inflammation model: ex vivo stimulated LTB4 production; parameters: species or system female Balb/c mice; conditions: Mus musculus, read-out: % Inh. LTB4
# [2] = test system: neutrophil influx (myeloperoxidase, MPO); test: Murine arachidonic acid-induced inflammation model: neutrophil influx (myeloperoxidase activity in ear biopsies); assay type: in vivo, female Balb/c mice; conditions: Mus musculus, read-out: % Inh. MPO
# [3] = test system: LTB4 production by calcium ionophore-stimulated murine blood; test: LTB4 production by calcium ionophore-stimulated murine blood for LTA4H inhibitor activity; assay type: cell-based, CD-1 mice
# [4] = target: T1, recombinant human LTA4 hydrolase (rhLTA4H) (Homo sapiens, UniProt P09960); test: Recombinant human LTA4 hydrolase assay for LTA4 hydrolase inhibitor activity; assay type: biochemical; conditions: LTA4 substrate, LTB4 by immunoassay, average of one to three determinations;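 also: enzyme expressed in Sf-9 insect cells, compound preincubated 10 min with enzyme, 10 min reaction at room temperature, uninhibited reaction as positive control, enzyme-free blank as negative control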
# T1 construct: made in house; host or cells: Spodoptera frugiperda (Sf-9) cells, baculovirus (pFastBac1)
# T1 sequence (P09960 1-611): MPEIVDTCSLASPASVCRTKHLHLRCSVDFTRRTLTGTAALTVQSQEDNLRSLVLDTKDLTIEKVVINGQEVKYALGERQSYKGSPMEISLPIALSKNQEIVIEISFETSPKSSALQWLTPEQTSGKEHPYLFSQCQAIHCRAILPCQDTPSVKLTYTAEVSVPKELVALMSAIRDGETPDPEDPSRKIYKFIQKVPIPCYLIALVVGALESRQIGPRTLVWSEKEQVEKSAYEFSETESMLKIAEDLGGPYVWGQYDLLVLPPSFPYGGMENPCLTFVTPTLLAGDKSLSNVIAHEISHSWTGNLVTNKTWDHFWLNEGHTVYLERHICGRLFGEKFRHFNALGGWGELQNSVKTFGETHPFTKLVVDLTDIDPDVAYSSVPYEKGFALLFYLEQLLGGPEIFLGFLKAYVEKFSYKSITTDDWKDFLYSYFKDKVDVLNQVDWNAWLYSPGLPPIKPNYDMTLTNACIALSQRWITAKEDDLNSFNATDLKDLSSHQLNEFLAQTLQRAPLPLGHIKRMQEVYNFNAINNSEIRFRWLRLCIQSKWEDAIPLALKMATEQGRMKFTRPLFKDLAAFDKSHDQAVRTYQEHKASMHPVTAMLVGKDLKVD
# [5] = test system: ionophore-induced LTB4 production in rat peritoneum; conditions: oral administration; cited from earlier work
# [6] = test system: colitis symptoms; conditions: eight weeks of treatment, cotton top tamarins; cited from earlier work
# [7] = test system: ionophore-induced LTB4 production in mouse blood; conditions: oral administration; cited from earlier work
# [8] = 30 mg/kg oral gavage, blood taken 3 h after arachidonic acid, ex vivo A23187 stimulation, vs animals without inhibitor
# [9] = 30 mg/kg oral gavage 60 min before topical arachidonic acid to ear, ear biopsies after 3 h, vs animals without inhibitor
# [10] = diluted CD-1 mouse whole blood, A23187 stimulation, LTB4 by immunoassay, read-out: IC50
SMILES,"inhibition at 30 mg/kg [1, 8] [%]","inhibition in vivo at 30 mg/kg [2, 9] [%]","IC50 [3, 10] [nM]",IC50 [4] [nM],"inhibition at 30 mg/kg ([1]; po, 3 h) [%]",IC50 ([3]; Mus musculus) [nM],"inhibition in vivo at 30 mg/kg ([2]; po, 3 h) [%]",inhibition of ionophore-induced LTB4 production in rat peritoneum in vivo [5],colitis symptoms [6],inhibition of ionophore-induced LTB4 production in mouse blood ex vivo [7]
"O=C1C[C@@H](O)CN1C1CCN(Cc2ccc(Oc3nc4ccccc4s3)cc2)CC1 [Example 446, 1-{1-[4-(Benzothiazol-2-yloxy)-benzyl]-piperidin-4-yl}-4-hydroxy-pyrrolidin-2-one]",64,43,131,8,,,,,,
"OC1(c2ccccc2)CCN(CCCOc2ccc(Oc3nc4ccccc4o3)cc2)CC1 [Example 27, 1-{3-[4-(Benzooxazol-2-yloxy)-phenoxy]-propyl}-4-phenyl-piperidin-4-ol]",,72,,7,50,143,,,,
"O=C(O)CCN(CCc1ccc(Oc2nc3ccccc3s2)cc1)CC1CC1 [Example 180, 3-({2-[4-(Benzothiazol-2-yloxy)-phenyl]-ethyl}-cyclopropylmethyl-amino)-propionic acid]",87,87,15,2,,,,,,
"c1ccc2sc(Oc3ccc(OCCn4nnnc4C4CCNCC4)cc3)nc2c1 [Example 206, 2-{4-[2-(5-Piperidin-4-yl-tetrazol-1-yl)-ethoxy]-phenoxy}-benzothiazole]",67,76,43,4,,,,,,
"OCC1CCCCN1CCOc1ccc(Oc2nc3ccccc3s2)cc1 (centres unmarked) [Example 263, (1-{2-[4-(Benzothiazol-2-yloxy)-phenoxy]-ethyl}-piperidin-2-yl)-methanol]",0,19,49,5,,,,,,
"O=C(O)C1CCN(CCOc2ccc(Oc3nc4ccccc4s3)cc2)CC1 [Example 18, 1-{2-[4-(Benzothiazol-2-yloxy)-phenoxy]-ethyl}-piperidine-4-carboxylic acid potassium salt]",,,,6,78,162,83,,,
"OCC1CCN(Cc2ccc(Oc3nc4ccccc4s3)cc2)CC1 [Example 360, {1-[4-(Benzothiazol-2-yloxy)-benzyl]-piperidin-4-yl}-methanol]",87,88,246,33,,,,,,
"O=C1C[C@H](O)CN1C1CCN(CCc2ccc(Oc3nc4ccccc4s3)cc2)CC1 [Example 336, (S)-1-(1-{2-[4-(Benzothiazol-2-yloxy)-phenyl]-ethyl}-piperidin-4-yl)-4-hydroxy-pyrrolidin-2-one]",67,0,153,24,,,,,,
CN(CCCOc1ccc(Cc2ccccc2)cc1)CCC(=O)O.Cl [SC57461],,,,,,,,caused inhibition of ionophore-induced LTB4 production,significantly improved colitis symptoms,caused inhibition of ionophore-induced LTB4 production
"O=C1C[C@H](O)CN1C1CCN(Cc2ccc(Oc3nc4ccccc4s3)cc2)CC1 [Example 447, 1-{1-[4-(Benzothiazol-2-yloxy)-benzyl]-piperidin-4-yl}-4-hydroxy-pyrrolidin-2-one]",90,48,240,28,,,,,,
"O=C(O)C1CCCN(CCc2ccc(Oc3nc4ccccc4s3)cc2)C1 (centres unmarked) [Example 155, 1-{2-[4-(Benzothiazol-2-yloxy)-phenyl]-ethyl}-piperidine-3-carboxylic acid]",96,93,127,9,,,,,,
"O=C(O)C1CCN(CCc2ccc(Oc3nc4ccccc4s3)cc2)CC1 [Example 150, 1-{2-[4-(Benzothiazol-2-yloxy)-phenyl]-ethyl}-piperidine-4-carboxylic acid]",81,91,52,1,,,,,,
